“Also recorded” adds a separate entry of the source.
Test system: C57BL/6 mice
Test: Test of hair regrowth effects on the shaved backs of C57BL/6 mice
Assay type: in vivo
Conditions: C57BL/6 mice (female), applied over hair removed area once a day for 30 days, 100 μl (0.05% w/v)
Source text: C57BL/6 mice (female), 42˜49 days old, were used in this test.
The mice were removed of hair on their backs using an electric shaver, and weighed. The mice were divided into several groups with weights equally distributed. […] The degree of hair growth were judged by naked eye and the back sides of the mice were photographed.

**Q.** [Leu^4]cyclosporin A [M21] was tested. Which “hair growth effect (degree of hair growth judged by naked eye)” value did it give?
**A.** no significant effect; also recorded: no hair growth effect
